Test results: patent publication US4092420A, “Novel soft N-chloroamino alcohol derivatives exhibiting antibacterial activity” (INTERx Research Corporation, priority 1977, dated 1978)

System: K. pneumoniae
Assay: Minimal inhibitory concentration (MIC), Example V
Type: cell-based
Conditions: Klebsiella pneumoniae
Procedure: MINIMAL INHIBITORY CONCENTRATION OF 2-AMINO-2-METHYL-1-PROPYL
^a Minimal inhibitory concentration expressed in parts per million
sequence inhibited the test organism at the higher concentrations.
THE ANTIBACTERIAL SCREEN - EXAMPLE V
Klebsiella pneumoniae ATCC# 10031
THE ANTIBACTERIAL SCREEN - EXAMPLES W - Z (Autotiter IV)
(a) Compounds. All compounds to be screened are weighed (approx. 10 mg) on the day preceding the test date. Each compound is solubilized on the day of assay in appropriate solvent and diluted automatically in the Autotiter IV with distilled water (buffer can be employed here also).
Bacteria: Staphylococcus aureas Smith (or 209), Escherichia coli AB 1932-1, 1100/B22 and Vogel, Streptococcus pyogenes C203 Salmonella typhimurium 14028, Bacillus subtilis 6051-1, Klebsiella pneumoniae 10031, Pseudomonas aeruginosa 9027, Bordetella bronchiseptica 4617 and Staphylococcus epidermidis 12228.
(c) Inocula. Prior to utilization in the Autotiter IV, all bacteria are cultured for 18-20 hr. (37° C) in tryptose phosphate broth (TP), except, S. pyogenes C203, which is cultured in Brain Heart Infusion broth plus 10% normal horse serum. Immediately prior to testing, each culture is adjusted to an optical density of 0.10 (650 nm), employing a Bausch & Lomb Spectronic 20, and diluted subsequently into double strength medium to approximately 2 × 10^5 viable organisms per ml.
1. An automated injector system dispenses 0.05 ml of diluent (sterile H2 O or buffer) to all cups of the autotiter trays from rows 2 through 7.
2. The loops (for sequential dilutions of the compounds are moistened by immersion into 70% ethyl alcohol. After removal of excess alcohol by blotting, the loops are moved to the first row of cups in the autotray containing 0.10 ml of the compound to be diluted and tested (usually, this initial concentration is 500 to 1000 mcg/ml, but can be varied upward or downward). The loops are lowered and sequentially transfer the diluted solutions of the compound through row 7.
Immediately after each dilution is made, each cup is automatically inoculated with 0.05 ml of the appropriate test organism. This inoculation derives from a second injector system containing the organism in double-strength medium. The total operation consists of the automatic dilution of a single compound in each of 8 rows of the Autotiter try.
After these operations, we reverse the tray and a second compound is diluted over the other one-half of the tray and inoculated, subsequently, with 8 organisms. Thus, for each Autotiter Tray, two compounds are screened against 8 different organisms at dilutions ranging from 1:2 to 1:128.
(e) Incubation. The inoculated Autotiter trays are incubated at 37° C for 18 - 20 hr. At the end of this period, each tray is examined for the presence or absence of growth (turbidity). The lowest concentration of the compound inhibiting growth is recorded as the minimal inhibitory concentration (MIC).

`CC(C)(COC(=O)C(C)(C)C)NCl` [IV c, 2-N-Chloroamino-2-methyl-1-propyl 2,2-dimethylproprionate] showed an MIC of over 250 µg/mL.
